For 24 compounds, DC50, Emax and Activity results are on record in ChEMBL document CHEMBL5344441, “Discovery and Preclinical Pharmacology of NX-2127, an Orally Bioavailable Degrader of Bruton's Tyrosine Kinase with Immunomodulatory Activity for the Treatment of Patients with B Cell Malignancies” (J Med Chem, 2024).

Assay [1] deals with T1, Protein cereblon/Tyrosine-protein kinase BTK (Homo sapiens, UniProt Q06187+Q96SW2). The assay can be described thus: PROTAC activity at CRBN/BTK in human TMD8 cells assessed as degradation of BTK protein incubated for 4 hrs by HTRF assay. The format is cell-based. (In general: In TR-FRET formats the signal depends on donor and acceptor labels being close together.)
Target sequence in this assay (Q06187 whole entry): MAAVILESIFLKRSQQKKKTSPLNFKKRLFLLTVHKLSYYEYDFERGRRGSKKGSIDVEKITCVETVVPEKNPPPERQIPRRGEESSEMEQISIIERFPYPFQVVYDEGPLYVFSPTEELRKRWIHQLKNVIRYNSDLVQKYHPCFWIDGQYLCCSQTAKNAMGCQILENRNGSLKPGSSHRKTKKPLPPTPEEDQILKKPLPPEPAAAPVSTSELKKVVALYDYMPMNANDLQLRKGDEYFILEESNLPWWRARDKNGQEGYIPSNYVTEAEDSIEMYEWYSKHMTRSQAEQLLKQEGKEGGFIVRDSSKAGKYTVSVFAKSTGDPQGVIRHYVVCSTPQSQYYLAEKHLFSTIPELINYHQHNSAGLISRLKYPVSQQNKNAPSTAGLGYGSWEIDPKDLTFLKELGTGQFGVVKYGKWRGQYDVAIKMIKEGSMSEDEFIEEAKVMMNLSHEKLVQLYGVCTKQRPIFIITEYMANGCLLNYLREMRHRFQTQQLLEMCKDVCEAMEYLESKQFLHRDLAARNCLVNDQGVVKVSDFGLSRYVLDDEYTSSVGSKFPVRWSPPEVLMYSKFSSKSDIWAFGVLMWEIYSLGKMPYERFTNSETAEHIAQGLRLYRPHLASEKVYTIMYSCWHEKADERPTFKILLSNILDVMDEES
Target sequence in this assay (Q96SW2 whole entry): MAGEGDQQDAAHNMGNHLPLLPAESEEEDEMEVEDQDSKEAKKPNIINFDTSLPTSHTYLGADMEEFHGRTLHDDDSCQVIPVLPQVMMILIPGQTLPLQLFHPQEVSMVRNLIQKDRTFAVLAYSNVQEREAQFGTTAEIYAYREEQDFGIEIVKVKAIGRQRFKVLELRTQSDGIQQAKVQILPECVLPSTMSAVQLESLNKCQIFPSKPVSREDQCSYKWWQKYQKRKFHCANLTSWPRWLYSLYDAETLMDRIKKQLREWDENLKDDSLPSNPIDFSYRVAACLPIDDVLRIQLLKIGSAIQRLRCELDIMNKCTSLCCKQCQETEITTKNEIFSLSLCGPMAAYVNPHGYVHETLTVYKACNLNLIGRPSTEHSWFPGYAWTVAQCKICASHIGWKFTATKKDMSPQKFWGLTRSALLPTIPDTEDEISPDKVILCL
Assay [2] deals with T1, Protein cereblon/Tyrosine-protein kinase BTK. The assay can be described thus: PROTAC activity at CRBN/BTK in human TMD8 cells assessed as maximal degradation of BTK protein incubated for 4 hrs by HTRF assay relative to control. The format is cell-based.
Target sequence in this assay (Q06187 2-659 limits assumed): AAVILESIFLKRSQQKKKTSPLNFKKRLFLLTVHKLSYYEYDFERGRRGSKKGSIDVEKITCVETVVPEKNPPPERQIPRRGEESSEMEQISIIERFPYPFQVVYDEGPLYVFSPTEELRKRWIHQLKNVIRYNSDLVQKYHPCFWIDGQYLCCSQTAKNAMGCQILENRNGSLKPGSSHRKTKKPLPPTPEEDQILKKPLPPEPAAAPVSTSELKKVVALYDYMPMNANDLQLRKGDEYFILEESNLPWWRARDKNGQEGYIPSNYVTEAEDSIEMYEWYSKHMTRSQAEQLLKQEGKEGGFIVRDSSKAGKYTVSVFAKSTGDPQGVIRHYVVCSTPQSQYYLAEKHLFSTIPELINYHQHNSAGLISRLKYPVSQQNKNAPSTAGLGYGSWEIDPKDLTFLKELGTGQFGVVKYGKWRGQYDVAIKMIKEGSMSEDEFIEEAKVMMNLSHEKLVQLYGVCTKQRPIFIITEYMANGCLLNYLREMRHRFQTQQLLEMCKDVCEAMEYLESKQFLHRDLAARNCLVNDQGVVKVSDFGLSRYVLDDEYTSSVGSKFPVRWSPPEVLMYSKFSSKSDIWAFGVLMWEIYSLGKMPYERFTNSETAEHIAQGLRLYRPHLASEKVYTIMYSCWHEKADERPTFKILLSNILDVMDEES
Target sequence in this assay (Q96SW2 whole entry partner): as the sequence (Q96SW2 whole entry) above
Assay [3] addresses T2, Protein cereblon/Tyrosine-protein kinase BTK (Mus musculus) (UniProt P35991+Q8C7D2). The assay can be described thus: In vivo protac activity at CRBN/BTK in BALB/c mouse assessed as remaining BTK protein in blood at 3 mg/kg,po administration measured after 6 hrs by flow cytomtery relative to control. The format is functional, organism-based.
The target of assay [4] is T3, Protein cereblon/Zinc finger protein Aiolos (Homo sapiens, UniProt Q96SW2+Q9UKT9). Briefly: PROTAC activity at CRBN/IKZF3 in human T cell assessed as maximal degradation of IKZF3 protein incubated for 24 hrs by flow cytometry relative to control. It counts as cell-based.
Target sequence in this assay (Q96SW2 whole entry, looked up): as the sequence (Q96SW2 whole entry) above
Target sequence in this assay (Q9UKT9 whole entry, looked up): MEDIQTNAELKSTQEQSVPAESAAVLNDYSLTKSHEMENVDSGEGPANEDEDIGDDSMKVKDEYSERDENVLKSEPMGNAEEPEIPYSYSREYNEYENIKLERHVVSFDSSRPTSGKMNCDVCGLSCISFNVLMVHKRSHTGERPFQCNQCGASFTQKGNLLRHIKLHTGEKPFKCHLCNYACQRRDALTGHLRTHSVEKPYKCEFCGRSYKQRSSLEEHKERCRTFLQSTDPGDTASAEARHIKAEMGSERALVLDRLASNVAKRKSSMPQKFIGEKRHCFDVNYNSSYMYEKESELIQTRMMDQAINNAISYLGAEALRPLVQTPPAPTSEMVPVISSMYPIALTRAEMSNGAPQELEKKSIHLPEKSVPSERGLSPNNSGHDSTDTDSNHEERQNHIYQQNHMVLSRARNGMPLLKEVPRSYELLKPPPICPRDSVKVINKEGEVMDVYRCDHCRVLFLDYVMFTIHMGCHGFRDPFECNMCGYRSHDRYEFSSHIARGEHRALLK
The target of assay [5] is T3, Protein cereblon/Zinc finger protein Aiolos. The assay can be described thus: PROTAC activity at CRBN/IKZF3 in human T cell assessed as degradation of IKZF3 protein incubated for 24 hrs by flow cytometry. The format is cell-based.
Target sequence in this assay (Q96SW2 whole entry): as the sequence (Q96SW2 whole entry) above
Target sequence in this assay (Q9UKT9 whole entry): as the sequence (Q9UKT9 whole entry, looked up) above
In assay [6] the target is T1, Protein cereblon/Tyrosine-protein kinase BTK. The assay can be described thus: PROTAC activity at CRBN/BTK in human Ramos cells assessed as degradation of BTK protein incubated for 4 hrs by HTRF assay. It counts as cell-based.
Target sequence in this assay (Q06187 whole entry): as the sequence (Q06187 whole entry) above
Target sequence in this assay (Q96SW2 whole entry): as the sequence (Q96SW2 whole entry) above
The target is the same in assay [7]. The assay can be described thus: PROTAC activity at CRBN/BTK in human Ramos cells assessed as maximal degradation of BTK protein incubated for 4 hrs by HTRF assay relative to control. It counts as cell-based.
Target sequence in this assay (Q06187 2-659 limits assumed): as the sequence (Q06187 2-659 limits assumed) above
Target sequence in this assay (Q96SW2 whole entry partner): as the sequence (Q96SW2 whole entry) above
Assay [8] concerns the target T2, Protein cereblon/Tyrosine-protein kinase BTK (Mus musculus). Briefly: In vivo protac activity at CRBN/BTK in BALB/c mouse assessed as remaining BTK protein in splenocyte at 3 mg/kg,po administration measured after 6 hrs by HTRF assay relative to control. The format is functional, organism-based.

T2 sequence (P35991 whole entry, looked up): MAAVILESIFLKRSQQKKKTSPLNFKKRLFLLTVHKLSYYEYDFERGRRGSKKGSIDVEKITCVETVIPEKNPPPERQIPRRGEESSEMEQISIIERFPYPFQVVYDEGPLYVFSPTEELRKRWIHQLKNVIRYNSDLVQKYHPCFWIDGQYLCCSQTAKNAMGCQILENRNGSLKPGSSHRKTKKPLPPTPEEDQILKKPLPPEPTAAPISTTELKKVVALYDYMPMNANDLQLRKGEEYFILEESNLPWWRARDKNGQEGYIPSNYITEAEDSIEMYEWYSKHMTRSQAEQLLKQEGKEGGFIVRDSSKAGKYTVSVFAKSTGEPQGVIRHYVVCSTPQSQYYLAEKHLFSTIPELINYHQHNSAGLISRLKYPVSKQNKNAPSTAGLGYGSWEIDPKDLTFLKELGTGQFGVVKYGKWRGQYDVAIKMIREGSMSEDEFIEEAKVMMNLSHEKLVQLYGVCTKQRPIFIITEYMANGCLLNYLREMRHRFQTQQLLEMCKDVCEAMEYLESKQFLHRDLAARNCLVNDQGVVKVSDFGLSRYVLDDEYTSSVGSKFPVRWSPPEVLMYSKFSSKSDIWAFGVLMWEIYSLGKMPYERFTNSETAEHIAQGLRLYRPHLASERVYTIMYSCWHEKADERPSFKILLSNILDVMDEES
T2 sequence (Q8C7D2 whole entry, looked up): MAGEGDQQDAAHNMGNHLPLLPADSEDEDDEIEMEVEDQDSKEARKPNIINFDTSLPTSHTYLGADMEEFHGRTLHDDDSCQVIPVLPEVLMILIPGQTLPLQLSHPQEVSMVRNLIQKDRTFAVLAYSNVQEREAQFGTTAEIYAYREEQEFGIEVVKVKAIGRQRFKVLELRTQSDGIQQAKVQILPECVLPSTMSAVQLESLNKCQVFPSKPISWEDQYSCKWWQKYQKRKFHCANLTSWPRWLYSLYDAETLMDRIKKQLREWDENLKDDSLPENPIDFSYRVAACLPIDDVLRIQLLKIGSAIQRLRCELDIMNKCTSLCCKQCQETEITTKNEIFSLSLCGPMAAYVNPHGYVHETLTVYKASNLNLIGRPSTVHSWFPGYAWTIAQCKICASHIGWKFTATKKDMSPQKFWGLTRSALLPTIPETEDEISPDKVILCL

Regarding `NC(=O)c1ncc(-c2nccs2)nc1Nc1ccc(C2CCN(C[C@H]3CCN(c4ccc5c(c4)C(=O)N(C4CCC(=O)NC4=O)C5=O)C3)CC2)cc1` (stereo partly specified), in assay [1], the DC50 turned out to be 1.7 nM. Besides, the Emax in assay [2] was 95%. The Activity in assay [3] is 24%.

As for `CN1CCN([C@@H]2CCCN(c3cnc(C(N)=O)c(Nc4ccc(N5CCC6(CCN(c7ccc8c(c7)C(=O)N(C7CCC(=O)NC7=O)C8=O)CC6)CC5)nc4)n3)C2)C1=O` (stereo partly specified), the DC50 in assay [1] turned out to be 4.3 nM. In assay [2], the Emax was found to be 94%. In assay [3], the Activity was found to be 96%.

As for `CN1CCN([C@@H]2CCCN(c3cnc(C(N)=O)c(Nc4ccc(C5CCN(C[C@H]6CC[C@@H](Nc7cccc8c7C(=O)N(C7CCC(=O)NC7=O)C8=O)CC6)CC5)cc4)n3)C2)C1=O` (stereo partly specified), the Emax in assay [4] amounted to 31%; in assay [7], 88%. The DC50 was > 2000 nM in assay [5] and 7 nM in assay [6].

For the compound `CN1CCN([C@@H]2CCCN(c3cnc(C(N)=O)c(Nc4ccc(N5CC6(C5)CN(c5ccc7c(c5)C(=O)N(C5CCC(=O)NC5=O)C7=O)C6)cc4)n3)C2)C1=O` (stereo partly specified), the DC50 in assay [1] came to 0.8 nM; in assay [5], 14 nM; in assay [6], 0.9 nM. In addition, the maximum response (Emax) in assay [4] came out at 83%; in assay [2], 97%; in assay [7], 94%.

On to `CN1CCN([C@@H]2CCCN(c3cnc(C(N)=O)c(Nc4ccc(C5CCN(CCCNc6cccc7c6C(=O)N(C6CCC(=O)NC6=O)C7=O)CC5)cc4)n3)C2)C1=O` (stereo partly specified), for which the Emax in assay [4] was found to be 87%; in assay [7], 95%. In addition, the DC50 in assay [5] was 11 nM; in assay [6] it was 2.4 nM.

In the case of `CN1CCN([C@@H]2CCCN(c3cnc(C(N)=O)c(Nc4ccc(C5CCN(CC6CN(c7ccc8c(c7)C(=O)N(C7CCC(=O)NC7=O)C8=O)C6)CC5)cc4)n3)C2)C1=O` (stereo partly specified), the DC50 in assay [6] turned out to be 0.8 nM. The Emax in assay [7] was determined as 97%.

`CN1CCN([C@@H]2CCCN(c3cnc(C(N)=O)c(Nc4ccc(C5CCN(C[C@H]6CCN(c7ccc8c(c7)CN(C7CCC(=O)NC7=O)C8=O)C6)CC5)cc4)n3)C2)C1=O` (stereo partly specified): the DC50 in assay [1] was 0.25 nM. Moreover, in assay [2], the Emax amounted to 96%. Besides, in assay [3], the Activity came to 49%.

Take `CN1CCN([C@@H]2CCCN(c3cnc(C(N)=O)c(Nc4ccc(C5CCN(C6CN(c7ccc8c(c7)C(=O)N(C7CCC(=O)NC7=O)C8=O)C6)CC5)cc4)n3)C2)C1=O` (stereo partly specified): the DC50 was determined as 1.2 nM in assay [1], 32 nM in assay [5] and 1.4 nM in assay [6]. Besides, the Emax worked out at 74% in assay [4], 96% in assay [2] and 91% in assay [7]. In assay [3], the Activity was 35%.

For `Cn1cc(-c2ccnc(-n3ncc4cc(C(C)(C)C)cc(F)c4c3=O)c2CO)cc(Nc2cc3n(n2)CCN(C(=O)CCOCCCc2cccc4c2CN(C2CCC(=O)NC2=O)C4=O)C3)c1=O` (stereo unspecified), the DC50 in assay [6] was determined as 50 nM. Further, the maximum response (Emax) in assay [7] amounted to 79%.

With `C[C@H]1CN(C(=O)CCOCCCc2cccc3c2CN(C2CCC(=O)NC2=O)C3=O)CCN1c1ccc(Nc2cc(-c3ccnc(N4CCn5c(cc6c5CC(C)(C)C6)C4=O)c3CO)cn(C)c2=O)nc1` (stereo partly specified), the DC50 in assay [6] amounted to 7.2 nM. Further, the Emax in assay [7] turned out to be 88%.

Turning to `Nc1ncnc2c1c(-c1ccc(Oc3ccccc3)cc1)nn2C1CCN(C(=O)CCOCCOCCOCCOCCOCCNc2cccc3c2C(=O)N(C2CCC(=O)NC2=O)C3=O)CC1` (stereo unspecified), the DC50 in assay [6] was 32 nM. Further, in assay [7], the Emax was 88%.

For `CN1CCN([C@@H]2CCCN(c3cnc(C(N)=O)c(Nc4ccc(C5CCN(C[C@@H]6CCN(c7ccc8c(c7)C(=O)N(C7CCC(=O)NC7=O)C8=O)C6)CC5)cc4)n3)C2)C1=O` (stereo partly specified), the DC50 in assay [6] was 1.2 nM. In assay [7], the Emax is 93%.

For `CN1CCN([C@@H]2CCCN(c3cnc(C(N)=O)c(Nc4ccc(C5CCN(C(=O)CCOCCNc6cccc7c6C(=O)N(C6CCC(=O)NC6=O)C7=O)CC5)cc4)n3)C2)C1=O` (stereo partly specified), the Emax stood at 99% in assay [4] and 80% in assay [7]. Also, the half-maximal degradation concentration (DC50) in assay [6] was 6.3 nM.

Turning to `CN1CCN([C@@H]2CCCN(c3cnc(C(N)=O)c(Nc4ccc(C5CCN(Cc6ccc7c(c6)C(=O)N(C6CCC(=O)NC6=O)C7=O)CC5)cc4)n3)C2)C1=O` (stereo partly specified), in assay [1], the DC50 is 17 nM. Further, the Emax in assay [2] was 76%.

With `CN1CCN([C@@H]2CCCN(c3cnc(C(N)=O)c(Nc4ccc(C5CCN(C[C@H]6CCN(c7ccc8c(c7)C(=O)N(C7CCC(=O)NC7=O)C8=O)C6)CC5)nc4)n3)C2)C1=O` (stereo partly specified), the DC50 in assay [1] was 1 nM. Also, the Activity in assay [8] was 46%. Moreover, in assay [2], the Emax amounted to 96%.

For the compound `Cc1[nH]c2c(C(N)=O)ccc(N3CCC[C@H](NC(=O)CCCCCCc4cccc5c4CN(C4CCC(=O)NC4=O)C5=O)C3)c2c1C` (stereo partly specified), the DC50 in assay [6] is > 10000 nM. Further, the Emax in assay [7] was < 20%.

With `CN1CCN([C@@H]2CCCN(c3cnc(C(N)=O)c(Nc4ccc5c(c4)CCN(CC4CCN(c6ccc7c(c6)C(=O)N(C6CCC(=O)NC6=O)C7=O)CC4)C5)n3)C2)C1=O` (stereo partly specified), the DC50 in assay [1] is 1.2 nM; in assay [5], 14 nM; in assay [6], 2.4 nM. Also, the Emax in assay [4] was determined as 86%; in assay [2] it was 96%; in assay [7], 95%. The Activity in assay [3] is 68%.

Take `CN1CCN([C@@H]2CCCN(c3cnc(C(N)=O)c(Nc4cnn(C5CCN(CC6CCN(c7ccc8c(c7)C(=O)N(C7CCC(=O)NC7=O)C8=O)CC6)CC5)c4)n3)C2)C1=O` (stereo partly specified): the DC50 in assay [1] is 0.63 nM. In assay [2], the Emax came out at 96%. Besides, the Activity in assay [3] was 48%.

In the case of `CN1CCN([C@@H]2CCCN(c3cnc(C(N)=O)c(Nc4ccc(C5CCN(CC6CCN(c7ccc8c(c7)C(=O)N(C7CCC(=O)NC7=O)C8=O)CC6)CC5)cc4)n3)C2)C1=O` (stereo partly specified), the Emax came to 74% in assay [4] and 94% in assay [7]. Besides, the half-maximal degradation concentration (DC50) stood at 28 nM in assay [5] and 0.75 nM in assay [6].

In the case of `CN1CCN([C@@H]2CCCN(c3cnc(C(N)=O)c(Nc4ccc(C5CN(C6CCN(c7ccc8c(c7)C(=O)N(C7CCC(=O)NC7=O)C8=O)CC6)C5)cc4)n3)C2)C1=O` (stereo partly specified), the DC50 in assay [1] came out at 0.53 nM; in assay [5], 28 nM; in assay [6], 0.9 nM. Further, the Emax in assay [4] was 79%; in assay [2] it was 96%; in assay [7], 95%. In assay [3], the Activity is 26%.

In the case of `Cc1cccc(C[C@@H](NC(=O)c2ccc3[nH]ncc3c2)C(=O)N2Cc3[nH]c4ccccc4c3C[C@@H]2C(=O)NCCOCCOCCOCCOCCOCCOCCOCCNc2cccc3c2C(=O)N(C2CCC(=O)NC2=O)C3=O)c1` (stereo partly specified), in assay [6], the DC50 was 2880 nM. Besides, the Emax in assay [7] was 51%.

In the case of `CN1CCN([C@@H]2CCCN(c3cnc(C(N)=O)c(Nc4ccc(C5CCN(C[C@H]6CC[C@H](Nc7cccc8c7C(=O)N(C7CCC(=O)NC7=O)C8=O)CC6)CC5)cc4)n3)C2)C1=O` (stereo partly specified), the Emax in assay [4] came out at 85%; in assay [7] it was 90%. Moreover, the DC50 in assay [5] was 40 nM; in assay [6] it was 1.6 nM.

Turning to `CN1CCN([C@@H]2CCCN(c3cnc(C(N)=O)c(Nc4ccc(N5CCC6(CC5)CN(c5cccc7c5C(=O)N(C5CCC(=O)NC5=O)C7=O)C6)cc4)n3)C2)C1=O` (stereo partly specified), the Emax in assay [2] came out at 50%.

On to `CN1CCN([C@@H]2CCCN(c3cnc(C(N)=O)c(Nc4ccc(C5(C)CCN(C[C@H]6CCN(c7ccc8c(c7)C(=O)N(C7CCC(=O)NC7=O)C8=O)C6)CC5)cc4)n3)C2)C1=O` (stereo partly specified), for which, in assay [1], the DC50 came out at 0.6 nM. For the same compound, in assay [8], the Activity was found to be 27%. Further, the Emax in assay [2] was 96%.

Broadly, the DC50 is the concentration at which degradation of the target reaches its halfway point. One may read the Emax as the maximal effect, on the per cent scale that the assay sets.
